Measured values published in patent US5468734A, “Prophylactic and remedial preparation for diseases attendant on hyperglycemia, and wholesome food” (Godo Shusei Co., Ltd., priority 1992, dated 1995).

Key:
[1] = system: maltase (carbohydrase derived from rabbit small intestine mucous membrane); assay: Action to inhibit the hydrolytic activity of homogenate prepared from rabbit small intestine mucous membrane: maltase inhibition; format: biochemical; conditions: for Maltase inhibition rate: substrate maltose 20 mM, pH 6.8, 37° C., 15 minutes
Description: (§1) (Action to inhibit the hydrolytic activity of homogenate prepared from rabbit small intestine mucous membrane to carbohydrate)
(§2) A native kind of white rabbits (weight: 3.0-3.5 kg) were sacrificed by exsanguination to take out their small intestines.
(§3) After freezing and thawing the small intestines thus taken out, they were homogenized in a 5 mM EDTA buffer (pH: 7.0) and subjected to centrifugation for 60 minutes at 60,000×g. Precipitate thus formed was collected and suspended again in a 10 mM potassium phosphate buffer (pH: 7.0), thereby obtaining a crude enzyme suspension.
(§4) Sucrose (20 mM) and maltose (20 mM) were used as substrates.
(§5) Each reaction mixture was formulated so as to contain 350 microliters of a 100 mM maleate buffer (pH: 6.8), 100 microliters of a substrate solution, 50 microliters of the crude enzyme suspension and 50 microliters of a test solution. Substances to be tested were separately dissolved in a maleate buffer (pH: 6.8) before use.
(§6) Respective reactions were conducted for 15 minutes at 37° C.

rise in blood sugar = assay: Action to depress the rise in blood sugar after sucrose loading to mice; format: in vivo, ICR male mice; conditions: for Rise in blood sugar / action to depress the rise in blood sugar due to sucrose loading (in words): sucrose 1 g/kg; for Rise in blood sugar: average ± standard error; for action to depress the rise in blood sugar due to sucrose loading (in words): orally 25, 50 and 100 mg/kg (L-arabinose, D-xylose) or 100 mg/kg (others); for action to depress the rise in blood sugar for sucrose or starch loading (in words): summary statement
[2] = target: T1, sucrase (carbohydrase derived from rabbit small intestine mucous membrane) (Oryctolagus cuniculus, UniProt P07768); assay: Action to inhibit the hydrolytic activity of homogenate prepared from rabbit small intestine mucous membrane: sucrase inhibition; format: biochemical; conditions: for inhibition at 250 µg/mL / inhibition at 500 µg/mL / inhibition at 1000 µg/mL / inhibition at 2000 µg/mL: 0.25 h, substrate sucrose 20 mM, pH 6.8, 37° C., 15 minutes, read-out: Sucrase inhibition rate; for inhibition at 250 µg/mL: 25 mg/dl; for inhibition at 500 µg/mL: 50 mg/dl; for inhibition at 1000 µg/mL: 100 mg/dl; for inhibition at 2000 µg/mL: 200 mg/dl
T1 construct: suspended again in a 10 mM potassium phosphate buffer (pH: 7.0), thereby obtaining a crude enzyme suspension; from tissue; host or cells: rabbit small intestine (title: mucous membrane), homogenate, 60,000×g precipitate
Description: as §1, §2, §3, §4, §5, §6

[3] = dose 100 mg/kg oral, after 30 min.
[4] = dose 100 mg/kg oral, after 60 min.
[5] = dose 100 mg/kg oral, after 120 min.

T1 sequence (P07768 1008-1827 limits assumed): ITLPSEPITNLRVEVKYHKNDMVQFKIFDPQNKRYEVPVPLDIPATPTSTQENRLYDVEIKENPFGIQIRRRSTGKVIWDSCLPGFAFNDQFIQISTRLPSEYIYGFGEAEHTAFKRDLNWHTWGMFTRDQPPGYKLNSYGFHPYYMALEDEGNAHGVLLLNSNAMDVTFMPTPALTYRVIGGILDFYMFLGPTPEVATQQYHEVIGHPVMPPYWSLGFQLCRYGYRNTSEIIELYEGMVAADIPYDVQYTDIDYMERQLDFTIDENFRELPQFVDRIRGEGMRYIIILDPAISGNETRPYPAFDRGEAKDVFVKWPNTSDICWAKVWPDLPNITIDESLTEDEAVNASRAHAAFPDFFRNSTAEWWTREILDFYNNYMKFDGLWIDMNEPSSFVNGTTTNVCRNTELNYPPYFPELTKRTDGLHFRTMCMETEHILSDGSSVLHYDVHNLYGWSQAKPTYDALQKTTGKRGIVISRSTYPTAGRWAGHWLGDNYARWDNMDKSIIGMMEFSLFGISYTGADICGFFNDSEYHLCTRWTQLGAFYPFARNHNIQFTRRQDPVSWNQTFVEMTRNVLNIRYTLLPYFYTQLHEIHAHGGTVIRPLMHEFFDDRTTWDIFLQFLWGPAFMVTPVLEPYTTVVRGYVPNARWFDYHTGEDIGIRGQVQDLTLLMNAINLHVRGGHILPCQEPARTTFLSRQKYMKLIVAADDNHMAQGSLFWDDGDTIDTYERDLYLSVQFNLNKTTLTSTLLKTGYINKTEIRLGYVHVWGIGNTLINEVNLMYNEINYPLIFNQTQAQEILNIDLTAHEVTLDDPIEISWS
T1 sequence (P07768 2-1007 partner limits assumed): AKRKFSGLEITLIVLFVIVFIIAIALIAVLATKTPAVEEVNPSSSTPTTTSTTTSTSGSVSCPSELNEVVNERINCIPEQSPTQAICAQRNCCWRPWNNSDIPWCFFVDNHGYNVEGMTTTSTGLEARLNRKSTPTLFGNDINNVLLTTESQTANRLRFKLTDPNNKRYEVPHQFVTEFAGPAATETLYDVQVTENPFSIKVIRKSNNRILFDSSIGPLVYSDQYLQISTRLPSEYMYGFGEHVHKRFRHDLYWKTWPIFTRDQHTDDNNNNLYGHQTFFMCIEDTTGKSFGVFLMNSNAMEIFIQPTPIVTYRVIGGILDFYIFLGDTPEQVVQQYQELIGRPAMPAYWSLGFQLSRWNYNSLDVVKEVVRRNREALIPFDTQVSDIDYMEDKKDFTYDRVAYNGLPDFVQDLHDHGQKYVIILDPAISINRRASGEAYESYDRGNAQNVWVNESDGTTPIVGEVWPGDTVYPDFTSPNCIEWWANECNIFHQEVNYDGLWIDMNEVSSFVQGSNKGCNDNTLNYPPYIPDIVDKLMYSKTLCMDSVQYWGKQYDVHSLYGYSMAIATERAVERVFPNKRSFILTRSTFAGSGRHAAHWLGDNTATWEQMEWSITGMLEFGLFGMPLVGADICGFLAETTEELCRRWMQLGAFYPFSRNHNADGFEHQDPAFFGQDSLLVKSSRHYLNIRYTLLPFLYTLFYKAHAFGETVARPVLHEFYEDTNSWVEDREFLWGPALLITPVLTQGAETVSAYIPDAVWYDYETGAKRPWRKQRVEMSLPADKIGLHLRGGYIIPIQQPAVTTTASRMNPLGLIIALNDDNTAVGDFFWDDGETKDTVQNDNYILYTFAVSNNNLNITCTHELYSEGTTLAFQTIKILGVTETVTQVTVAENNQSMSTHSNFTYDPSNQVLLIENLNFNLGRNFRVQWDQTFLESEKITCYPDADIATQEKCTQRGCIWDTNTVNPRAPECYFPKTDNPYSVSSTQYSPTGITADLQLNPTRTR

Maltase inhibition rate ([1]; 25 mg/dl)	Maltase inhibition rate ([1]; 50 mg/dl)	Maltase inhibition rate ([1]; 100 mg/dl)	Maltase inhibition rate ([1]; 200 mg/dl)	sucrase-inhibiting action (in words) [2]	inhibition at 250 µg/mL [2]	inhibition at 500 µg/mL [2]	inhibition at 1000 µg/mL [2]	inhibition at 2000 µg/mL [2]	Compound	maltase-inhibiting action (in words) [1]	Rise in blood sugar (rise in blood sugar; [3])	Rise in blood sugar (rise in blood sugar; [4])	Rise in blood sugar (rise in blood sugar; [5])	action to depress the rise in blood sugar due to sucrose loading (in words) (rise in blood sugar)	action to depress the rise in blood sugar for sucrose or starch loading (in words) (rise in blood sugar)	Rise in blood sugar (rise in blood sugar; dose 25 mg/kg oral, after 30 min.)	Rise in blood sugar (rise in blood sugar; dose 25 mg/kg oral, after 60 min.)	Rise in blood sugar (rise in blood sugar; dose 50 mg/kg oral, after 30 min.)	Rise in blood sugar (rise in blood sugar; dose 50 mg/kg oral, after 60 min.)	Rise in blood sugar (rise in blood sugar; dose 50 mg/kg oral, after 120 min.)
29.2%	36.4%	44.3%	53.1%	strong sucrase-inhibiting action	28.5%	35.5%	49.5%	59.8%	O=C[C@H](O)[C@@H](O)[C@H](O)CO [D-Xylose, D-xylose]	strong sucrase-inhibiting action and maltase-inhibiting action	38.2 Δmg/dl	45.2 Δmg/dl	23.4 Δmg/dl	depressed in dependence on the dose	effective action to depress the rise in blood sugar	76.3 Δmg/dl	55.4 Δmg/dl	62.5 Δmg/dl	47.3 Δmg/dl	24.0 Δmg/dl
16.4%	18.4%	24.8%	31.0%	strong sucrase-inhibiting action	11.6%	16.2%	32.8%	30.7%	C[C@H](O)[C@@H](O)[C@@H](O)[C@H](O)C=O [L-Fucose, L-fucose]	strong sucrase-inhibiting action and maltase-inhibiting action	62.0 Δmg/dl	44.4 Δmg/dl	26.3 Δmg/dl	significantly depressed	effective action to depress the rise in blood sugar					
			19.4%	inhibiting actions second to these		8%	11.9%	24.5%	O=C[C@@H](O)[C@H](O)[C@@H](O)CO [L-Xylose, L-xylose]	inhibiting actions second to these	66.3 Δmg/dl	53.2 Δmg/dl		significantly depressed	effective action to depress the rise in blood sugar					
			11.9%	inhibiting actions second to these				19.9%	O=C(CO)[C@@H](O)[C@H](O)CO [D-Xylulose, D-xylulose]	inhibiting actions second to these	67.3 Δmg/dl	59.7 Δmg/dl	27.5 Δmg/dl	significantly depressed	effective action to depress the rise in blood sugar					

The next lines start with the compound.

Compound	Maltase inhibition rate ([1]; 25 mg/dl)	Maltase inhibition rate ([1]; 50 mg/dl)	Maltase inhibition rate ([1]; 100 mg/dl)	Maltase inhibition rate ([1]; 200 mg/dl)	sucrase-inhibiting action (in words) [2]	inhibition at 250 µg/mL [2]	inhibition at 500 µg/mL [2]	inhibition at 1000 µg/mL [2]	inhibition at 2000 µg/mL [2]	maltase-inhibiting action (in words) [1]	Rise in blood sugar (rise in blood sugar; [3])	Rise in blood sugar (rise in blood sugar; [4])	Rise in blood sugar (rise in blood sugar; [5])	action to depress the rise in blood sugar due to sucrose loading (in words) (rise in blood sugar)	action to depress the rise in blood sugar for sucrose or starch loading (in words) (rise in blood sugar)	Rise in blood sugar (rise in blood sugar; dose 25 mg/kg oral, after 30 min.)	Rise in blood sugar (rise in blood sugar; dose 25 mg/kg oral, after 60 min.)	Rise in blood sugar (rise in blood sugar; dose 50 mg/kg oral, after 30 min.)	Rise in blood sugar (rise in blood sugar; dose 50 mg/kg oral, after 60 min.)	Rise in blood sugar (rise in blood sugar; dose 50 mg/kg oral, after 120 min.)
O=CC[C@@H](O)[C@@H](O)[C@H](O)CO [2-Deoxy-D-galactose, 2-deoxy-D-galactose]	11.2%	13.4%	19.3%	32.8%	strong sucrase-inhibiting action	13.7%	15.5%	21.6%	34.8%	strong sucrase-inhibiting action and maltase-inhibiting action	61.1 Δmg/dl	50.8 Δmg/dl	26.2 Δmg/dl	significantly depressed	effective action to depress the rise in blood sugar					
O=C[C@H](O)[C@H](O)[C@H](O)CO [D-Ribose, D-ribose]	13.5%	18.4%	33.3%	46.5%	strong sucrase-inhibiting action	13.7%	17.8%	34%	33.4%	strong sucrase-inhibiting action and maltase-inhibiting action	61.2 Δmg/dl	48.5 Δmg/dl		significantly depressed	effective action to depress the rise in blood sugar					
O=C(CO)[C@H](O)[C@H](O)CO [D-Ribulose, D-ribulose]				20.1%	inhibiting actions second to these				21.7%	inhibiting actions second to these	65.6 Δmg/dl	56.3 Δmg/dl	28.1 Δmg/dl	significantly depressed	effective action to depress the rise in blood sugar					
